8 compounds from patent publication US20030171368A1, “Pyrimidinonesulfamoylureas`” (priority 2002, published 2003) can be followed below.

In brackets after ≈: the same amount, converted by molar mass.

In one series the target is T1, integrin αvβ3 (Homo sapiens, UniProt P05106+P06756).
T1 construct: from tissue; host or cells: human placenta
The series is described as follows: Integrin αvβ3 assay: competition between vitronectin and test substance for binding to solid phase-bound integrin αvβ3. The conditions noted are these: competition with human vitronectin; result in words only. As for the experimental part: For the identification and assessment of integrin αvβ3 ligands, a test system was used which is based on competition between the natural integrin αvβ3 ligand vitronectin and the test substance for binding to solid phase-bound integrin αvβ3. […]
coat microtiter plates with 250 ng/ml of integrin αvβ3 in 0.05 M NaHCO3 pH 9.2; 0.1 ml/well; overnight/4° C. saturate with 1% milk powder/assay buffer; 0.3 ml/well; 0.5 h/RT wash 3× with 0.05% Tween 20/assay buffer test substance in 0.1% milk powder/assay buffer, 50 μl/well +0 μg/ml or 2 μg/ml of human vitronectin (Boehringer Ingelheim T007) in 0.1% milk powder/assay buffer, 50 μl/well; 1 h/RT […]
1 μg/ml of anti-human vitronectin antibody coupled to peroxidase (Kordia SAVN-APHRP) in 0.1% milk powder/assay buffer; 0.1 ml/well; 1 h/RT […]
0.1 ml/well of peroxidase substrate stop reaction with 0.1 ml/well of 2 M H2SO4 measurement of the absorption at 450 nm
Integrin αvβ3: Human placenta is solubilized with Nonidet and integrin αvβ3 is affinity-purified on a GRGDSPK matrix (elution mit EDTA). Impurities due to integrin […] and human serum albumin, and the detergent and EDTA are removed by anion exchange chromatography. […]
For the compound `Cc1cn(C[C@H](NS(=O)(=O)N(C)C)C(=O)O)c(=O)nc1N1CCC(CNc2ccccn2)CC1` [Example 9, (2S)-2-{[(Dimethylamino)sulfonyl]amino}-3-(5-methyl-2-oxo-4-{4-[(2-pyridinylamino)-methyl]-1-piperidinyl}-1 (2H)-pyrimidinyl)propionic acid], the “IC50 values (concentration of the ligand at which 50% of the ligand is displaced)” value is “best results”.
Turning to `Cc1cn(C[C@H](NS(=O)(=O)N(C)C)C(=O)O)c(=O)nc1N1CCC(CNc2nc3ccccc3[nH]2)CC1.Cl.Cl` [Example 2, (2S)-3-(4-{4-[(1H-Benzimidazol-2-ylamino)methyl]-1-piperidinyl}-5-methyl-2-oxo-1 (2H)-pyrimidinyl)-2-{[(dimethylamino)sulfonyl]amino}propionic acid (dihydrochloride)], the “IC50 values (concentration of the ligand at which 50% of the ligand is displaced)” value is “best results”.

Test system in another series: not listed separately
The experiment in a line: Solubility in water (10 mg in 1 ml H2O, shaken, centrifuged, HPLC against DMSO solution). The format is physicochemical. The conditions noted are these: 10 mg substance in 1 ml H2O, shaken 10 minutes, supernatant measured by HPLC. As to the method:
The compounds of the general formula I according to the invention are distinguished in comparison to the substances described in WO 00/61551 by more advantageous physicochemical properties, in particular an improved solubility in water.
10 mg of the substance to be investigated were dissolved in 1 ml of DMSO, vigorously shaken for 10 minutes and then centrifuged for 10 minutes at 10000 rpm and diluted with a mixture of 5% CH3CN/H2O+0.1% TFA 1:10.
10 mg of substance were mixed with 1 ml of H2O, vigorously shaken for 10 minutes and centrifuged for 10 minutes at 10000 rpm. The supernatant was removed and likewise diluted. Both solutions were measured by HPLC (column: MACHEREY & NAGEL, Nucleosil C18 PPN, 100×2.1 mm ID, 5μ, temp: 40° C.) and the concentration of the aq. solution was determined.
On to `CCOC(=O)N[C@@H](Cn1cc(C)c(N2CCC(CNc3nc4ccccc4[nH]3)CC2)nc1=O)C(=O)O.Cl` [(2S)-3-(4-{4-[(1H-Benzimidazol-2-ylamino)methyl]-1-piperidlnyl}-5-methyl-2-oxo-1(2H)-pyrimidinyl)-2-[(ethoxycarbonyl)amino]propanoic acid (hydrochloride)], for which the “Solubility (H2O)” value amounted to 560 µg/mL.

Staying with this series, now noted: water, thermodynamic from solid, 10 mg substance in 1 ml H2O, shaken 10 minutes, supernatant measured by HPLC.
The solubility is the dissolved amount per volume that the medium holds. Low readings indicate little dissolved substance, high ones much dissolved substance. With `Cc1cn(C[C@H](NS(=O)(=O)N(C)C)C(=O)O)c(=O)nc1N1CCC(CNc2nc3ccccc3[nH]2)CC1.Cl.Cl` [Example 2, (2S)-3-(4-{4-[(1H-Benzimidazol-2-ylamino)methyl]-1-piperidinyl}-5-methyl-2-oxo-1 (2H)-pyrimidinyl)-2-{[(dimethylamino)sulfonyl]amino}propionic acid (dihydrochloride)], the solubility at 10 min was 2500 µg/mL.
For the compound `CCNC(=O)N[C@@H](Cn1cc(C)c(N2CCC(CNc3nc4ccccc4[nH]3)CC2)nc1=O)C(=O)O` [(2S)-3-(4-{4-[(1H-Benzimidazol-2-ylamino)methyl]-1-piperidinyl}-5-methyl-2-oxo-1(2H)-pyrimidinyl)-2-{[(ethylamino)carbonyl]amino}propanoic acid], the solubility at 10 min is 860 µg/mL (≈ 1730 µM).
The same measure, in the same setting: with `Cc1cn(C[C@H](NC(=O)N(C)C)C(=O)O)c(=O)nc1N1CCC(CNc2nc3ccccc3[nH]2)CC1.Cl` [(2S)-3-(4-{4-[(1H-Benzimidazol-2-ylamino)methyl]-1-piperidinyl}-5-methyl-2-oxo-1(2H)-pyrimidinyl)-2-{[(dimethylamino)carbonyl]amino}propanoic acid (hydrochloride)] the figure was 810 µg/mL; with `CC(=O)O.Cc1cn(C[C@H](NS(=O)(=O)c2ccccc2)C(=O)O)c(=O)nc1N1CCC(CNc2nc3ccccc3[nH]2)CC1` [(2S)-3-(4-{4-[(1H-Benzimidazol-2-ylamino)methyl]-1-piperidinyl}-5-methyl-2-oxo-1(2H)-pyrimidinyl)-2-[(phenylsulfonyl)amino]propanoic acid (acetate)], under 50 µg/mL; with `CC(=O)N[C@@H](Cn1cc(C)c(N2CCC(CNc3nc4ccccc4[nH]3)CC2)nc1=O)C(=O)O.Cl` [(2S)-2-(Acetylamino)-3-(4-{4-[(1H-benzimidazol-2-ylamino)methyl]-1-piperidinyl}-5-methyl-2-oxo-1(2H)-pyrimidinyl)propanoic acid (hydrochloride)], 1000 µg/mL.
As to `Cc1cn(C[C@H](NS(C)(=O)=O)C(=O)O)c(=O)nc1N1CCC(CNc2nc3ccccc3[nH]2)CC1.Cl` [(2S)-3-(4-{4-[(1H-Benzimidazol-2-ylamino)methyl]-1-piperidinyl}-5-methyl-2-oxo-1(2H)-pyrimidinyl)-2-[(methylsulfonyl)amino]propanoic acid (hydrochloride)], the solubility at 10 min was under 50 µg/mL.
